Measured values as given in patent US11779536B2 (Ocular Therapeutix, Inc., priority 2020, dated 2023).
Several values for one entry are separate records, joined by “and”; a condition that tells them apart may be missing. Identical values can stand only once. Like-named read-outs stand apart in the source and are kept apart here.

Experiments:
[1] = beagle, insert nominal dose 0.7 mg, in 6 weeks
[2] = Proof of concept PK study Example 3.2: cyclosporine tear fluid concentration and drug released from inserts; assay type: in vivo, beagle dogs; conditions: beagle, insert nominal dose 0.44 mg, over 32 days, assuming consistent daily release
Description: Inserts were removed at 32 days to determine the amount of remaining drug compared to the administered dose.

[3] = for Cyclosporine per insert Mean ± SD: initial 671±13 μg; for Cyclosporine per insert, OD: 0.67 mg insert (initial 671±13 μg), 9% 4a20K SG/trilysine

CC=CCC(C)C(O)C1C(=O)NC(CC)C(=O)N(C)CC(=O)N(C)C(CC(C)C)C(=O)NC(C(C)C)C(=O)N(C)C(CC(C)C)C(=O)NC(C)C(=O)NC(C)C(=O)N(C)C(CC(C)C)C(=O)N(C)C(CC(C)C)C(=O)N(C)C(C(C)C)C(=O)N1C (centres unmarked) [cyclosporine, 30-ethyl-33-(1-hydroxy-2-methylhex-4-enyl)-1,4,7,10,12,15,19,25,28-nonamethyl-6,9,18,24-tetrakis(2-methylpropyl)-3,21-di(propan-2-yl)-1,4,7,10,13,16,19,22,25,28,31-undecazacyclotritriacontane-2,5,8,11,14,17,20,23,26,29,32-undecone]
average amount of cyclosporine released [1]: 0.37 mg | estimated daily delivered dose [2]: 6.3 µg/day | Cyclosporine per insert Mean ± SD ([3]; amount left in inserts removed from beagles at day 28, all eyes): 576 ± 18 µg | Cyclosporine per insert Mean ± SD ([3]; amount left in inserts removed from beagles at day 50, all eyes): 494 ± 32 µg | Cyclosporine per insert, OD ([3]; amount left in single insert removed from beagle right eye at day 28): 596 µg | Cyclosporine per insert, OD ([3]; amount left in single insert removed from beagle right eye at day 50): 520 µg and 521 µg and 451 µg | released amount ([3]; beagle, initial dose 671±13 μg, 28 days): 3.4 µg | released amount ([3]; beagle, initial dose 671±13 μg, 50 days): 3.5 µg | amount of cyclosporine left in the removed insert ([3]; beagle, initial dose 671±13 μg, inserts removed at 28 days): 576 ± 18 µg | amount of cyclosporine left in the removed insert ([3]; beagle, initial dose 671±13 μg, inserts removed at 50 days): 494 ± 32 µg | daily estimated delivered dose ([3]; beagle, initial dose 671±13 μg, over 28 and 50 days): approximately 3.5 μg/day
